The experiment addresses T1, human H3 receptor (Homo sapiens, UniProt Q9Y5N1).
T1 construct: expressed in transfected cells
Description: In vitro H3 binding assay (3H-N-α-methyl-histamine competition binding). The note with it: membranes of CHO-K1 cells expressing human H3 receptor; 2 nM 3H-NαMH; read-out: hH3 binding IC50. As for the experimental part: The ability of compounds to bind to the H3 receptor was determined by measuring the reduction in tritiated N-α-methyl-histamine (^3H—NαMH) binding in a competition binding assay. Changes in the levels of bound radio-label were monitored by scintillation counting with a Trilux Microbeta (Perkin Elmer).
Membranes were prepared from CHO-K1 cells stably expressing human H3 receptor; routinely grown as monolayers in Ham's F12 medium (Invitrogen) supplemented with 10% Foetal Clone 111 (Hyclone), 500 μg/ml G418 (Invitrogen), 5 μg/ml blasticidine S (Invivogen) and […] Gentamicin (Sigma) in 5% CO2 at 37° C. Cells were grown to 80-95% confluency, rinsed once with 1×PBS (Invitrogen) and detached by incubating with 1×PBS containing 0.02% EDTA (Sigma) for 10 minutes at room temperature. Cells were collected by centrifugation at 900×g, 4° C. for 10 minutes. Cells were rinsed once with 1×PBS and re-suspended in ice cold homogenisation buffer (50 mM Tris-HCl (pH 7.4), 2.5 mM EDTA, 5 mM MgCl2, 200 mM Sucrose) at 1×10^7 cells/ml and kept on ice. Cells were homogenised on ice and debris removed by centrifugation at 500×g, 4° C. for 5 minutes. The resulting supernatant was centrifuged at 75,600×g, 4° C. for 60 minutes. Membranes were suspended in homogenisation buffer, protein concentration was determined (BCA Protein Assay kit (Pierce)), diluted to 2.2 mg/ml, dispensed into 1 ml aliquots and stored at −80° C.
Membranes were thawed on ice, sonicated with 4 cycles of 20 pulses (50% amplitude, 0.5 pulse) (UP200S Hielscher) on ice, diluted in assay buffer (50 mM Tris-HCl (pH7.4), 5 mM MgCl2) to 62.5 μg/ml. Compound was serially diluted in DMSO before being diluted 1:10 with assay buffer. 5 μg of membrane in 80 μl of assay buffer was added per well of a 96 well polystyrene plate (Corning). […] of compound was added per well. The assay was initiated by the addition of 10 μl of 20 nM ^3H—NαMH per well and incubated for one hour at room temperature with shaking. Total binding was determined in the presence of 1% DMSO and non-specific binding was determined by the inclusion of 1 μM R-α-methyl-histamine (RαMH). Incubations were then filtered through filtermat A (Perkin Elmer) and washed three times with assay buffer. Filtermats were dried at 42° C. for two hours, scintillant added and the level of bound radioactivity determined.
IC50 values for compounds were determined from seven point log scale dose-response studies and represent the concentration of compound required to inhibit 50% of the specific binding of 2 nM ^3H—NαMH (difference between total and non-specific binding). Curves were generated using the average of duplicate wells for each data point and analyzed using nonlinear regression of sigmoidal dose response (variable slope).
T1 sequence (Q9Y5N1 whole entry): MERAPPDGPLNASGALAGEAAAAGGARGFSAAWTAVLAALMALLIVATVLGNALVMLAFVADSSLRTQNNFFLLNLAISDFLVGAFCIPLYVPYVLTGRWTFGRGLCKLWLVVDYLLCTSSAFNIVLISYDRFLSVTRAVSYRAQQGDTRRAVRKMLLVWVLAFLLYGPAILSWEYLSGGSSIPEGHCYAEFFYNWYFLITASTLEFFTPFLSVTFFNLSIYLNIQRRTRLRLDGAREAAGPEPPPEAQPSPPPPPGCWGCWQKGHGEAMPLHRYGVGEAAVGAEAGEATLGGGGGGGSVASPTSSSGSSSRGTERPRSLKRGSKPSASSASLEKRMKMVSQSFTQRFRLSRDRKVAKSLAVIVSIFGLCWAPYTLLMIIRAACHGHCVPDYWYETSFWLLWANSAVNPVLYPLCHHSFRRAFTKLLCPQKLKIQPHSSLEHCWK
Turning to `Cc1nn(-c2ccccc2)c(C)c1CNC(=O)c1ccc2c(c1)CCN(C1CCC1)CC2` [Example 110, 3-Cyclobutyl-N-((3,5-dimethyl-1-phenyl-1H-pyrazol-4-yl)methyl)-2,3,4,5-tetrahydro-1H-benzo[d]azepine-7-carboxamide], the IC50 was found to be 17 nM.
The result for `O=C(NCc1ncc[nH]1)c1ccc2c(c1)CCN(C1CCC1)CC2` [Example 113, N-((1H-Imidazol-2-yl)methyl)-3-cyclobutyl-2,3,4,5-tetrahydro-1H-benzo[d]azepine-7-carboxamide] reads 13 nM; that for `O=C(NCc1ccc2c(c1)CCN(C1CCC1)CC2)c1cccnc1` [Example 120, N-((3-cyclobutyl-2,3,4,5-tetrahydro-1H-benzo[d]azepin-7-yl)methyl)nicotinamide], 1 nM.
For `CO/N=C(\CCc1ccccc1)c1ccc2c(c1)CCN(C1CCC1)CC2` [Example 131, 1-(3-cyclobutyl-2,3,4,5-tetrahydro-1H-benzo[d]azepin-7-yl)-3-phenylpropan-1-one O-methyl oxime] the value was 30 nM.
For `O/N=C(\CCc1ccccc1)c1ccc2c(c1)CCN(C1CCC1)CC2` [Example 132, 1-(3-cyclobutyl-2,3,4,5-tetrahydro-1H-benzo[d]azepin-7-yl)-3-phenylpropan-1-one oxime] the value was 6 nM; for `Cn1nccc1CCC(O)c1ccc2c(c1)CCN(C1CCC1)CC2` (stereo not drawn) [Example 137, 1-(3-cyclobutyl-2,3,4,5-tetrahydro-1H-benzo[d]azepin-7-yl)-3-(1-methyl-1H-pyrazol-5-yl)propan-1-ol], 26 nM.
As to `O=C(C1CCC1)N1CCC(O)(Cc2ccc3c(c2)CCN(C2CCC2)CC3)CC1` [Example 155, cyclobutyl(4-((3-cyclobutyl-2,3,4,5-tetrahydro-1H-benzo[d]azepin-7-yl)methyl)-4-hydroxypiperidin-1-yl)methanone], the IC50 stood at 24 nM.
The result for `Cc1nc(C)c(C(=O)NCc2ccc3c(c2)CCN(C2CCC2)CC3)s1` [Example 268, N-((3-cyclobutyl-2,3,4,5-tetrahydro-1H-benzo[d]azepin-7-yl)methyl)-2,4-dimethylthiazole-5-carboxamide] reads 4 nM; that for `O=C(NCc1ccc2c(c1)CCN(C1CCOC1)CC2)c1ccc(N2CCCC2)nc1` (stereo not drawn) [Example 269, 6-(pyrrolidin-1-yl)-N-((3-(tetrahydrofuran-3-yl)-2,3,4,5-tetrahydro-1H-benzo[d]azepin-7-yl)methyl)nicotinamide], 2.5 nM; that for `COc1ccc(NC(=O)Cc2ccc3c(c2)CCN(C2CCC2)CC3)cn1` [Example 274, 2-(3-cyclobutyl-2,3,4,5-tetrahydro-1H-benzo[d]azepin-7-yl)-N-(6-methoxypyridin-3-yl)acetamide], 9 nM.
For `COc1nc(C)c(C(=O)NCc2ccc3c(c2)CCN(C2CCC2)CC3)s1` [Example 275, N-((3-cyclobutyl-2,3,4,5-tetrahydro-1H-benzo[d]azepin-7-yl)methyl)-2-methoxy-4-methylthiazole-5-carboxamide] the value was 7 nM; for `Cc1nocc1C(=O)NCc1ccc2c(c1)CCN(C1CCC1)CC2` [Example 276, N-((3-cyclobutyl-2,3,4,5-tetrahydro-1H-benzo[d]azepin-7-yl)methyl)-3-methylisoxazole-4-carboxamide], 19 nM.
The result for `O=C(NCc1ccc2c(c1)CCN(C1CCC1)CC2)c1ccc(NCC2CC2)nc1` [Example 280, N-[(3-cyclobutyl-2,3,4,5-tetrahydro-1H-3-benzazepin-7-yl)methyl]-6-[(cyclopropylmethyl)amino]pyridine-3-carboxamide] reads 0.3 nM; that for `O=C(NCc1ccc2c(c1)CCN(C1CCC1)CC2)c1ccc(O[C@H]2CCOC2)nc1` [Example 281, N-[(3-cyclobutyl-2,3,4,5-tetrahydro-1H-3-benzazepin-7-yl)methyl]-6-[(3S)-tetrahydrofuran-3-yloxy]pyridine-3-carboxamide], 0.8 nM.
Consider `O=C(NCc1ccc2c(c1)CCN(C1CCC1)CC2)c1ccc(NC2CCOC2)nc1` (stereo not drawn) [Example 282, N-[(3-cyclobutyl-2,3,4,5-tetrahydro-1H-3-benzazepin-7-yl)methyl]-6-(tetrahydrofuran-3-ylamino)pyridine-3-carboxamide], for which the IC50 is 1 nM.
`O=C(NCc1ccc2c(c1)CCN(C1CC(O)C1)CC2)c1ccc(N2CCCC2)nc1` (stereo not drawn) [Example 287, N-((3-(3-hydroxycyclobutyl)-2,3,4,5-tetrahydro-1H-benzo[d]azepin-7-yl)methyl)-6-(pyrrolidin-1-yl)nicotinamide]: the IC50 came out at 1 nM.
The result for `C[C@H](O)CNc1ccc(C(=O)NCc2ccc3c(c2)CCN(C2CCC2)CC3)cn1` [Example 290, (S)—N-((3-cyclobutyl-2,3,4,5-tetrahydro-1H-benzo[d]azepin-7-yl)methyl)-6-(2-hydroxypropylamino)nicotinamide] reads 3 nM.
The result for `O=C(Cc1ccc2c(c1)CCN(C1CCC1)CC2)Nc1ccc(N2CCCC2)nc1` [Example 294, 2-(3-cyclobutyl-2,3,4,5-tetrahydro-1H-3-benzazepin-7-yl)-N-[6-(pyrrolidin-1-yl)pyridin-3-yl]acetamide] reads 8 nM; that for `O=C(NCc1ccc2c(c1)CCN(C1CCOC1)CC2)c1ccc(N2CC[C@H](F)C2)nc1` (stereo partly drawn) [Example 300, 6-((S)-3-fluoropyrrolidin-1-yl)-N-((3-(tetrahydrofuran-3-yl)-2,3,4,5-tetrahydro-1H-benzo[d]azepin-7-yl)methyl)nicotinamide], 5 nM; that for `CNc1ncc(C(=O)NCc2ccc3c(c2)CCN(C2CCC2)CC3)cn1` [Example 302, N-((3-cyclobutyl-2,3,4,5-tetrahydro-1H-benzo[d]azepin-7-yl)methyl)-2-(methylamino)pyrimidine-5-carboxamide], 3 nM.
For `CN(Cc1ccc2c(c1)CCN(C1CCC1)CC2)C(=O)c1cnc(N2CCCC2)nc1` [Example 313, N-((3-cyclobutyl-2,3,4,5-tetrahydro-1H-benzo[d]azepin-7-yl)methyl)-N-methyl-2-(pyrrolidin-1-yl)pyrimidine-5-carboxamide] the value was 1 nM; for `COCC(C)(C)Oc1ccc(C(=O)NCc2ccc3c(c2)CCN(C2CCC2)CC3)cn1` [Example 315, N-[(3-cyclobutyl-2,3,4,5-tetrahydro-1H-3-benzazepin-7-yl)methyl]-6-[(1-methoxy-2-methylpropan-2-yl)oxy]pyridine-3-carboxamide], 2 nM.
As for `C[C@@H](O)CN(C)c1ccc(C(=O)NCc2ccc3c(c2)CCN(C2CCC2)CC3)cn1` [Example 316, (R)—N-((3-cyclobutyl-2,3,4,5-tetrahydro-1H-benzo[d]azepin-7-yl)methyl)-6-((2-hydroxypropyl)(methyl)amino)nicotinamide], the IC50 was found to be 0.9 nM.
As to `O=C(NCc1ccc2c(c1)CCN(C1CCC1)CC2)[C@H]1C[C@@H](OC2CCOCC2)C1` [Example 319, cis-N-((3-cyclobutyl-2,3,4,5-tetrahydro-1H-benzo[d]azepin-7-yl)methyl)-3-(tetrahydro-2H-pyran-4-yloxy)cyclobutanecarboxamide], the IC50 amounted to 62 nM.

For orientation: IC50 means the concentration at which inhibition is half-maximal.

For the origin of these results see US20110124626A1, “BENZAZEPINE DERIVATIVES AND THEIR USE AS HISTAMINE H3 ANTAGONISTS” (TAKEDA PHARMACEUTICAL COMPANY LIMITED, priority 2008, published 2011).
